We go through 15 compounds from patent EP4610269A1, “UROKINASE PLASMINOGEN ACTIVATOR SURFACE RECEPTOR (UPAR) LIGANDS FOR DIAGNOSTIC OR THERAPEUTIC USE” (3B Pharmaceuticals GmbH, priority 2024, dated 2025).

Where a SMILES comes first, the peptide text is derived from it. Bridges are numbered along the chain shown (N, C = ends). [ ]: non-standard residue; d: D form. The star is where a group is joined. DOTA = O=C(O)CN1CCN(CC(=O)O)CCN(CC(=O)*)CCN(CC(=O)O)CC1; Phe(2-Cl) = N[C@@H](Cc1ccccc1Cl)C(=O)O; Dopa = N[C@@H](Cc1ccc(O)c(O)c1)C(=O)O; cisHyp = O=C(O)[C@@H]1C[C@H](O)CN1; Hyp = O=C(O)[C@@H]1C[C@@H](O)CN1; NMeF = CN[C@@H](Cc1ccccc1)C(=O)O; 3Pal = N[C@@H](Cc1cccnc1)C(=O)O; Pentanoyl(4-Me) = CC(C)CCC(=O)*; Cit = NC(=O)NCCC[C@H](N)C(=O)O; Pen = CC(C)(S)[C@H](N)C(=O)O; Dab = NCC[C@H](N)C(=O)O; Nva = CCC[C@H](N)C(=O)O; Pentanoyl = CCCCC(=O)*; Ava = NCCCCC(=O)O A value given as a limit tells only on which side of the number the result lay.

The target of one test is T1, human uPAR (uPAR-Fc) (Homo sapiens, UniProt Q03405).
T1 construct: comprising amino acids Leu23-Arg303 according to UniProt entry Q03405.1; purchased R&D Systems 10378-UK-100
T1 sequence (Q03405 23-303): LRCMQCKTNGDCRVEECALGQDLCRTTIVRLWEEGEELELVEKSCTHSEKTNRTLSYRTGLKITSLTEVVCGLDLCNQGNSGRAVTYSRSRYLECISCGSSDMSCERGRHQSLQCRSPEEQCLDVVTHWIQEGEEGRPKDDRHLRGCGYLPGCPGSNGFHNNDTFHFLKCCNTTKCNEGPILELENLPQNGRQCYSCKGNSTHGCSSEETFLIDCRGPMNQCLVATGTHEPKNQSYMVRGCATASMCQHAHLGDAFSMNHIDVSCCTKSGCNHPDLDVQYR
Put plainly: Surface plasmon resonance (SPR) assay, single cycle kinetics. The test is classed as binding. To be noted: pKD category for uPAR SPR activity assay; uPAR-Fc on Protein A-Chip, single cycle kinetics, 25°C; read-out: pKD CAT (converted). An outline of the steps:
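uPAR-Fc (Leu23-Arg303 extracellular domains, human IgG1 Fc) captured on Protein A chip to ~2000 RU; single-cycle kinetics at 25°C in HEPES running buffer pH 7.4 with 0.1% DMSO. KD from double-referenced sensorgrams fitted to 1:1 Langmuir model, reported as pKD.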

Test [1] has as its target T2, uPAR-expressing HEC-265 human endometrial adenocarcinoma cells (Homo sapiens, UniProt Q03405).
T2 construct: Cell surface uPAR-expressing HEC-265 human endometrial adenocarcinoma cells; host or cells: HEC-265
Put plainly: Competitive FACS binding assay. Conditions: pIC50 category of FACS binding. An outline of the steps: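 Competitive displacement of a 10 nM biotinylated peptide from HEC-265 cells (1 h, 4 °C, PBS/1% BSA), detected via APC-streptavidin by flow cytometry. pIC50 from four-parameter logistic fit of median fluorescence versus concentration.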
A general note: A flow cytometer gives signals particle by particle.

T2 sequence (Q03405 23-335): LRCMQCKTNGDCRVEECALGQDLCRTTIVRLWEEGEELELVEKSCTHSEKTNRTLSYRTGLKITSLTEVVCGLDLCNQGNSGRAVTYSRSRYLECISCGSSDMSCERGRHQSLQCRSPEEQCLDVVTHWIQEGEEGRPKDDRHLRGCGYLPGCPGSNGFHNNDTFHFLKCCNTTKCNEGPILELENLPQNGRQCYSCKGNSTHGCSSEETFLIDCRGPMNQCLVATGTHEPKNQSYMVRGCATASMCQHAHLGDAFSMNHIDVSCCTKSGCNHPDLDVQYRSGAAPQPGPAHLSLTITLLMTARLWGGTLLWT

As to `CCCCC(=O)N[C@H]1CSSC[C@@H](C(N)=O)NC(=O)[C@H](CCC)NC(=O)[C@H]([C@@H](C)CC)NC(=O)[C@@H]2C[C@@H](O)CN2C(=O)[C@@H]2C[C@H](O)CN2C(=O)[C@H](Cc2ccccc2)NC(=O)[C@H](Cc2ccc(O)cc2)NC(=O)[C@H](CCCCNC(=O)CN2CCN(CC(=O)O)CCN(CC(=O)O)CCN(CC(=O)O)CC2)NC(=O)[C@H]([C@@H](C)O)NC1=O` [UPAR-388, Pent-[Cys-Thr-Lys(DOTA)-Tyr-Phe-Chy-Hyp-Ile-Nva-Cys]-NH2] (Pentanoyl-CTK(DOTA)YF[cisHyp][Hyp]I[Nva]C-NH2; disulfide 1-10), the Kd on human uPAR (uPAR-Fc) was 1.58 to 10 nM. In test [1], the IC50 is not above 10 nM.
Turning to `CCCCC(=O)N[C@H]1CCNC(=O)CC[C@@H](C(N)=O)NC(=O)[C@H](CCC)NC(=O)[C@H]([C@@H](C)CC)NC(=O)[C@@H]2C[C@@H](O)CN2C(=O)[C@@H]2CCCN2C(=O)[C@H](Cc2ccccc2)NC(=O)[C@H](Cc2ccc(O)cc2)NC(=O)[C@H](CCC(N)=O)NC(=O)[C@H](CCCNC(=N)N)NC1=O` [UPAR-390, Pent-[Dab-Arg-Gln-Tyr-Phe-Pro-Hyp-Ile-Nva-Glu]-NH2] (Pentanoyl-[Dab]RQYFP[Hyp]I[Nva]E-NH2; lactam 1-10), on human uPAR (uPAR-Fc), the Kd is more than 100 nM. The IC50 in test [1] is not below 126 nM.
For `CCCCC(=O)N[C@H]1CSSC[C@@H](C(N)=O)NC(=O)[C@H](CCC)NC(=O)[C@H]([C@@H](C)CC)NC(=O)[C@@H]2C[C@@H](O)CN2C(=O)[C@@H]2CCCN2C(=O)[C@H](Cc2ccccc2)NC(=O)[C@H](Cc2ccc(O)cc2)NC(=O)[C@H](CCC(N)=O)NC(=O)[C@H](CC(C)C)NC1=O` [UPAR-391, Pent-[Cys-Leu-Gln-Tyr-Phe-Pro-Hyp-Ile-Nva-Cys]-NH2] (Pentanoyl-CLQYFP[Hyp]I[Nva]C-NH2; disulfide 1-10), the Kd at human uPAR (uPAR-Fc) is less than 1.58 nM. The compound further showed an IC50 in test [1] not above 10 nM.
Take `CC[C@H](C)[C@@H]1NC(=O)[C@@H](C)NC(=O)[C@@H]2CCCN2C(=O)[C@H](Cc2ccccc2)NC(=O)[C@H](Cc2ccc(O)cc2)NC(=O)[C@H](CCCCNC(=O)CN2CCN(CC(=O)O)CCN(CC(=O)O)CCN(CC(=O)O)CC2)NC(=O)[C@@H](CC(=O)O)NC(=O)[C@@H](NC(=O)[C@H](CC(C)C)NC(=O)[C@H](CC(=O)O)NC(C)=O)CSSC[C@@H](C(N)=O)NC(=O)[C@H](CC(C)C)NC1=O` [UPAR-392, Ac-Asp-Leu-[Cys-asp-Lys(DOTA)-Tyr-Phe-Pro-ala-Ile-Leu-Cys]-NH2] (Ac-DLC[dD]K(DOTA)YFP[dA]ILC-NH2; disulfide 3-12): the Kd on human uPAR (uPAR-Fc) is more than 100 nM. Besides, the IC50 in test [1] is not below 126 nM.
Turning to `CC[C@H](C)[C@@H]1NC(=O)[C@@H](C)NC(=O)[C@@H]2CCCN2C(=O)[C@H](Cc2ccccc2)NC(=O)[C@H](Cc2cccnc2)NC(=O)[C@H](CCC(N)=O)NC(=O)[C@H](CCCNC(N)=O)NC(=O)[C@@H](NC(=O)CCC(C)C)CSSC[C@@H](C(N)=O)NC(=O)[C@H](CC(C)C)NC1=O` [UPAR-393, iHex-[Cys-Cit-Gln-Mpa-Phe-Pro-ala-Ile-Leu-Cys]-NH2] ({Pentanoyl(4-Me)}-C[Cit]Q[3Pal]FP[dA]ILC-NH2; disulfide 1-10), the Kd on human uPAR (uPAR-Fc) was less than 1.58 nM. In test [1], this compound had a concentration for half-maximal inhibition (IC50) not above 10 nM.
In the case of `CC[C@H](C)[C@@H]1NC(=O)[C@@H](C)NC(=O)[C@@H]2CCCN2C(=O)[C@H](Cc2ccccc2)NC(=O)[C@H](Cc2ccc(O)cc2)NC(=O)[C@H](CCC(N)=O)NC(=O)[C@H](CCCNC(N)=O)NC(=O)[C@@H](NC(=O)CCCCN)CSSC[C@@H](C(N)=O)NC(=O)[C@H](CC(C)C)NC1=O` [UPAR-394, H-Ava-[Cys-Cit-Gln-Tyr-Phe-Pro-ala-Ile-Leu-Cys]-NH2] (H-[Ava]C[Cit]QYFP[dA]ILC-NH2; disulfide 2-11), on human uPAR (uPAR-Fc), the Kd is more than 100 nM. Also, in test [1], the IC50 was not below 126 nM.
With `CCCCC(=O)N[C@H]1CSSC[C@@H](C(N)=O)NC(=O)[C@H](CCC)NC(=O)[C@H]([C@@H](C)CC)NC(=O)[C@@H]2C[C@@H](O)CN2C(=O)[C@@H]2CCCN2C(=O)[C@H](Cc2ccccc2)NC(=O)[C@H](Cc2ccccc2Cl)NC(=O)[C@H](CCC(N)=O)NC(=O)[C@H](CCCNC(=N)N)NC1=O` [UPAR-395, Pent-[Cys-Arg-Gln-Ocf-Phe-Pro-Hyp-Ile-Nva-Cys]-NH2] (Pentanoyl-CRQ[Phe(2-Cl)]FP[Hyp]I[Nva]C-NH2; disulfide 1-10), the Kd on human uPAR (uPAR-Fc) was less than 1.58 nM. The same compound gave an IC50 in test [1] not above 10 nM.
Consider `CCCCC(=O)N[C@H]1CSSC[C@@H](C(N)=O)NC(=O)[C@H](CC(C)C)NC(=O)[C@H]([C@@H](C)CC)NC(=O)[C@@H]2CCCN2C(=O)[C@@H]2CCCN2C(=O)[C@H](Cc2ccccc2)NC(=O)[C@H](Cc2ccc(O)cc2)NC(=O)[C@H](CCCCNC(=O)CN2CCN(CC(=O)O)CCN(CC(=O)O)CCN(CC(=O)O)CC2)NC(=O)[C@H](CCCNC(N)=O)NC1=O` [UPAR-396, Pent-[Cys-Cit-Lys(DOTA)-Tyr-Phe-Pro-Pro-Ile-Leu-Cys]-NH2] (Pentanoyl-C[Cit]K(DOTA)YFPPILC-NH2; disulfide 1-10), for which, on human uPAR (uPAR-Fc), the Kd is less than 1.58 nM. Further, the half-inhibitory concentration (IC50) in test [1] is not above 10 nM.
On to `CCCCC(=O)N[C@@H]1C(=O)N[C@@H](CCCNC(N)=O)C(=O)N[C@@H](CCC(N)=O)C(=O)N[C@@H](Cc2ccc(O)cc2)C(=O)N[C@@H](Cc2ccccc2)C(=O)N2CCC[C@H]2C(=O)N2C[C@H](O)C[C@H]2C(=O)N[C@@H]([C@@H](C)CC)C(=O)N[C@@H](CCC)C(=O)N[C@H](C(N)=O)CSSC1(C)C` [UPAR-397, Pent-[Pen-Cit-Gln-Tyr-Phe-Pro-Hyp-Ile-Nva-Cys]-NH2] (Pentanoyl-[Pen][Cit]QYFP[Hyp]I[Nva]C-NH2; disulfide 1-10), for which the Kd on human uPAR (uPAR-Fc) was less than 1.58 nM. In test [1], this compound had an IC50 not above 10 nM.
As to `CCCCC(=O)N[C@H]1CSSC[C@@H](C(N)=O)NC(=O)[C@H](CCC)NC(=O)[C@H]([C@@H](C)CC)NC(=O)[C@@H]2C[C@@H](O)CN2C(=O)[C@@H]2CCCN2C(=O)[C@H](Cc2ccccc2)N(C)C(=O)[C@H](Cc2ccc(O)cc2)NC(=O)[C@H](CCCCNC(=O)CN2CCN(CC(=O)O)CCN(CC(=O)O)CCN(CC(=O)O)CC2)NC(=O)[C@H](CCCNC(N)=O)NC1=O` [UPAR-398, Pent-[Cys-Cit-Lys(DOTA)-Tyr-Nmf-Pro-Hyp-Ile-Nva-Cys]-NH2] (Pentanoyl-C[Cit]K(DOTA)Y[NMeF]P[Hyp]I[Nva]C-NH2; disulfide 1-10), on human uPAR (uPAR-Fc), the Kd is more than 100 nM. This compound also had an IC50 in test [1] not below 126 nM.
For the compound `CCCCC(=O)N[C@H]1CSSC[C@@H](C(N)=O)NC(=O)[C@H](CCC)NC(=O)[C@H]([C@@H](C)CC)NC(=O)[C@@H]2C[C@@H](O)CN2C(=O)[C@@H]2CCCN2C(=O)[C@H](Cc2ccccc2)NC(=O)[C@H](Cc2ccc(O)c(O)c2)NC(=O)[C@H](CCCCNC(=O)CN2CCN(CC(=O)O)CCN(CC(=O)O)CCN(CC(=O)O)CC2)NC(=O)[C@H](CCCNC(N)=O)NC1=O` [UPAR-399, Pent-[Cys-Cit-Lys(DOTA)-Dopa-Phe-Pro-Hyp-Ile-Nva-Cys]-NH2] (Pentanoyl-C[Cit]K(DOTA)[Dopa]FP[Hyp]I[Nva]C-NH2; disulfide 1-10), the Kd on human uPAR (uPAR-Fc) was less than 1.58 nM. For the same compound, the IC50 in test [1] was not above 10 nM.
The matching figures for `CCCCC(=O)N[C@H]1CSSC[C@@H](C(N)=O)NC(=O)[C@H](CCC)NC(=O)[C@H]([C@@H](C)CC)NC(=O)[C@@H]2C[C@@H](O)CN2C(=O)[C@H](Cc2ccccc2)NC(=O)[C@H](Cc2ccccc2)NC(=O)[C@H](Cc2ccc(O)cc2)NC(=O)[C@H](CCC(N)=O)NC(=O)[C@H](CCCNC(=N)N)NC1=O` [UPAR-400, Pent-[Cys-Arg-Gln-Tyr-Phe-Phe-Hyp-Ile-Nva-Cys]-NH2] (Pentanoyl-CRQYFF[Hyp]I[Nva]C-NH2; disulfide 1-10): 1.58 to 10 nM and not above 10 nM.
For the compound `CCCCC(=O)N[C@H]1CSSC[C@@H](C(N)=O)NC(=O)[C@H](CCC)NC(=O)[C@H]([C@@H](C)CC)NC(=O)[C@@H]2C[C@@H](O)CN2C(=O)[C@@H]2CCCN2C(=O)[C@H](Cc2ccccc2)NC(=O)[C@H](Cc2c[nH]c3ccccc23)NC(=O)[C@H](CCC(N)=O)NC(=O)[C@H](CCCNC(=N)N)NC1=O` [UPAR-401, Pent-[Cys-Arg-Gln-Trp-Phe-Pro-Hyp-Ile-Nva-Cys]-NH2] (Pentanoyl-CRQWFP[Hyp]I[Nva]C-NH2; disulfide 1-10), at human uPAR (uPAR-Fc), the Kd was less than 1.58 nM. The IC50 in test [1] is not above 10 nM.
Taken in the same sequence, the figures for `CC[C@H](C)[C@@H]1NC(=O)[C@@H](C)NC(=O)[C@@H]2CCCN2C(=O)[C@H](Cc2ccccc2)NC(=O)[C@H](Cc2ccc(O)cc2)NC(=O)[C@H](CCC(N)=O)NC(=O)[C@H](CCCNC(N)=O)NC(=O)[C@@H](NC(=O)CCC(C)C)CSSC[C@@H](C(N)=O)NC(=O)[C@H](C)NC1=O` [UPAR-402, iHex-[Cys-Cit-Gln-Tyr-Phe-Pro-ala-Ile-Ala-Cys]-NH2] ({Pentanoyl(4-Me)}-C[Cit]QYFP[dA]IAC-NH2; disulfide 1-10) were 1.58 to 10 nM and 12.6 to 31.6 nM.
As for `CC[C@H](C)[C@@H]1NC(=O)[C@H]([C@@H](C)CC)NC(=O)[C@@H](C)NC(=O)[C@@H]2CCCN2C(=O)[C@H](Cc2ccccc2)NC(=O)[C@H](Cc2ccc(O)cc2)NC(=O)[C@H](CCC(N)=O)NC(=O)[C@H](CCCNC(N)=O)NC(=O)[C@@H](NC(=O)CCC(C)C)CSSC[C@@H](C(N)=O)NC1=O` [UPAR-405, iHex-[Cys-Cit-Gln-Tyr-Phe-Pro-ala-Ile-Ile-Cys]-NH2] ({Pentanoyl(4-Me)}-C[Cit]QYFP[dA]IIC-NH2; disulfide 1-10), the Kd on human uPAR (uPAR-Fc) is 1.58 to 10 nM. This compound also showed an IC50 in test [1] of 12.6 to 31.6 nM.

By IC50 is commonly meant the concentration that inhibits the measured activity by half.
